pIC50: −log10 of the molar value. Activity calls are given as the source filed them. No cut-off for these calls is given here.
Legend:
HL-60 = assay: Cytotoxicity against human HL60 cells by MTT assay; type: functional, cell-based
K562 = assay: Cytotoxicity against human K562 cells by MTT assay; type: functional, cell-based
A-431 = assay: Cytotoxicity against human A431 cells by MTT assay; type: functional, cell-based
MCF7 = assay: Cytotoxicity against human MCF7 cells by MTT assay; type: functional, cell-based
PBMC [1] = assay: Selectivity ratio of IC50 for human A375 cells to IC50 for human PBMC cells
Ehrlich [2] = assay: Induction of apoptosis in mouse Ehrlich ascites carcinoma cells assessed as intracellular ROS generation at 0.4 uM after 1 hr by measuring increase in fluorescent intensity relative to control; type: functional
Ehrlich [3] = assay: Antitumor activity against mouse Ehrlich ascites carcinoma cells xenografted in Swiss A mouse assessed as restoration of lymphocyte infiltration and sinusoid dilation at 1 mg/kg, ip administered five doses in alternate days measured after 16 days by histopathological study relative to untreated control; type: functional, organism-based; parameters: dose 1 mg/kg
PBMC [4] = assay: Cytotoxicity against human PBMC cells after 24 hrs by MTT assay; type: cell-based
[5] = Toxicity in single ip dosed Swiss A mouse; type: organism-based; settings: in vivo
Mus musculus [6] = assay: Toxicity in Swiss A mouse xenografted with mouse Ehrlich ascites carcinoma cells assessed as food and water intake at 1 mg/kg, ip administered five doses in alternate days measured after 16 days; type: organism-based; parameters: dose 1 mg/kg, route intraperitoneal; settings: in vivo, 384 h
Mus musculus [7] = assay: Effect on alkaline phosphatase activity in Swiss A mouse xenografted with mouse Ehrlich ascites carcinoma cells assessed as umole of PNPP hydrolysed per minute per decilitre of serum at 1 mg/kg, ip administered five doses in alternate days measured after 16 days relative to control; type: functional; parameters: unit: umol/min/dL; settings: route intraperitoneal
PBMC [8] = assay: Selectivity ratio of IC50 for human Hep2 cells to IC50 for human PBMC cells
PBMC [9] = assay: Selectivity ratio of IC50 for mouse Ehrlich ascites carcinoma to IC50 for human PBMC cells
Ehrlich [10] = assay: Antitumor activity against mouse Ehrlich ascites carcinoma cells xenografted in Swiss A mouse assessed as inhibition of tumor growth at 1 mg/kg, ip administered five doses in alternate days measured after 16 days; type: functional; parameters: unit not given here; settings: route intraperitoneal
Ehrlich [11] = assay: Induction of apoptosis in mouse Ehrlich ascites carcinoma cells assessed as intracellular ROS generation at 0.4 uM after 1 hr by measuring increase in fluorescent intensity relative to control in presence of N-acetyl L-cysteine; type: functional, cell-based
Ehrlich [12] = assay: Cytotoxicity against mouse Ehrlich ascites carcinoma cells after 24 hrs by MTT assay; type: functional, cell-based
HEp-2 = assay: Cytotoxicity against human Hep2 cells after 24 hrs by MTT assay; type: functional, cell-based; settings: HEp-2, 24 h
A-375 = assay: Cytotoxicity against human A375 cells after 24 hrs by MTT assay; type: functional, cell-based; settings: A-375, 24 h
Mus musculus [13] = assay: Effect on serum LDH activity in Swiss A mouse xenografted with mouse Ehrlich ascites carcinoma cells assessed as LDH unit at 1 mg/kg, ip administered five doses in alternate days measured after 16 days relative to control; type: functional; parameters: unit not given here; settings: route intraperitoneal
Ehrlich [14] = assay: Antitumor activity against mouse Ehrlich ascites carcinoma cells xenografted in Swiss A mouse assessed as increase in life span at 1 mg/kg, ip administered five doses in alternate days relative to control; type: functional; settings: route intraperitoneal
Ehrlich [15] = assay: Antitumor activity against mouse Ehrlich ascites carcinoma cells xenografted in Swiss A mouse assessed as increase in survival time at 1 mg/kg, ip administered five doses in alternate days; type: functional; parameters: unit not given here; settings: route intraperitoneal
Ehrlich [16] = assay: Induction of apoptosis in mouse Ehrlich ascites carcinoma cells assessed as intracellular ROS generation after 1 hr; type: functional, cell-based

| Compound | pIC50 (HL-60) | pIC50 (K562) | pIC50 (A-431) | pIC50 (MCF7) | pIC50 (PBMC [4]) | LD50 [5] [mg/kg] | Activity (Mus musculus [7]) | Activity (Ehrlich [10]) | pIC50 (Ehrlich [12]) | pIC50 (HEp-2) | pIC50 (A-375) | Activity (Mus musculus [13]) | Activity (Ehrlich [14]) [%] | Activity (Ehrlich [15]) | Activity (Ehrlich [16]) | further results |
| --- | --- | --- | --- | --- | --- | --- | --- | --- | --- | --- | --- | --- | --- | --- | --- | --- |
| CCOc1cc(C)cc2c1C(=O)C=C(c1c(C)cc3c(c1OCC)C(=O)C=CC3=O)C2=O | 4.52 | 4.40 | 4.80 | 4.72 |  |  |  |  |  |  |  |  |  |  |  |  |
| COc1cc(C)cc2c1C(=O)C=C(c1c(C)cc3c(c1OC)C(=O)C(NC(C)=O)=CC3=O)C2=O |  |  |  |  | 4.06 | > 60 | 5.5 | 3.3 | 7.22 | 6.04 | 7.22 | 26.3 | 93 | 35.7 |  | Selectivity ratio (PBMC [1]): 100; Activity (Ehrlich [2]): 9; Activity (Ehrlich [3]): Active; Activity (Mus musculus [6]): Non-toxic; Selectivity ratio (PBMC [8]): 100; Selectivity ratio (PBMC [9]): 100; Activity (Ehrlich [11]): inactive |
| COc1cc(C)cc2c1C(=O)C=C(c1c(C)cc3c(c1OC)C(=O)C=CC3=O)C2=O | 4.19 | < 4.00 | 4.55 | 4.33 |  | 45 | 4.9 | 2.9 |  |  |  | 25.5 | 57 | 29.8 |  |  |
| Cc1cc(O)c2c(c1)C(=O)C(c1c(C)cc3c(c1O)C(=O)C=CC3=O)=CC2=O [DIOSPYRIN] | < 4.00 | < 4.00 | 4.18 | 4.13 |  | 25 | 3.7 | 4.3 |  |  |  | 16.3 | 36 | 23.2 |  |  |
| COc1cc(C)cc2c1C(=O)C=C(c1c(C)cc3c(c1OC)C(=O)C(N)=CC3=O)C2=O |  |  |  |  | < 4.00 |  | 4.4 | 3.4 | 6.46 | 5.45 | 5.49 | 34.7 | 72 | 31.5 | Dose-dependent effect |  |
| COc1cc(C)cc2c1C(=O)C=C(c1c(C)cc3c(c1OC)C(=O)C(NCc1ccccc1)=CC3=O)C2=O |  |  |  |  | < 4.00 |  | 3.1 | 3 | 5.85 | 5.58 | 6.26 | 31.8 | 47 | 28.4 | Dose-dependent effect |  |
| COc1cc(C)cc2c1C(=O)C(N)=C(c1c(C)cc3c(c1OC)C(=O)C(N)=CC3=O)C2=O |  |  |  |  | 4.39 |  | 4.9 | 3.9 | 6.43 | 5.63 | 5.71 | 37.5 | 62 | 30 |  |  |
| COc1cc(C)cc2c1C(=O)C=C(c1c(C)cc3c(c1OC)C(=O)C(Nc1ccc4ccccc4c1)=CC3=O)C2=O |  |  |  |  | 4.13 |  | 5.4 | 2.9 | 6.62 | 5.69 | 7.10 | 23.5 | 67 | 34 | Dose-dependent effect |  |
| COc1cc(C)cc2c1C(=O)C=C(c1c(C)cc3c(c1OC)C(=O)C(Nc1ccc(Cl)cc1)=CC3=O)C2=O |  |  |  |  | 4.35 |  | 6.4 | 2.7 | 6.60 | 6.19 | 6.20 | 25.5 | 69 | 34.3 | Dose-dependent effect |  |
| CCOC(=O)CNC1=CC(=O)c2cc(C)c(C3=CC(=O)c4c(OC)cc(C)cc4C3=O)c(OC)c2C1=O |  |  |  |  | 4.02 |  | 5.9 | 2.3 | 7.05 | 6.07 | 6.24 | 24.6 | 81 | 34.9 | Dose-dependent effect | Activity (Ehrlich [2]): 9; Activity (Ehrlich [11]): inactive |

Source: ChEMBL document CHEMBL1156718, “Synthesis of novel aminoquinonoid analogues of diospyrin and evaluation of their inhibitory activity against murine and human cancer cells” (Eur J Med Chem, 2008)
